Each block holds one molecule with its values, some of them ahead of it. Activity calls are given as the source filed them.
Tests used:
[1] = tested on: BJ; test: BJ-TERT fibroblast viability loss – cell-based, RAS-independent, luminescence, dose response (AID 1933); format: functional; conditions: Homo sapiens
[2] = target: T1, Estrogen receptor beta (Homo sapiens, UniProt Q92731);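 note: recombinant ER-beta bound to coactivator SRC1 peptide in presence of estradiol agonist; inhibitors block coactivator peptide binding and lower the FRET signal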
T1 sequence (Q92731 whole entry): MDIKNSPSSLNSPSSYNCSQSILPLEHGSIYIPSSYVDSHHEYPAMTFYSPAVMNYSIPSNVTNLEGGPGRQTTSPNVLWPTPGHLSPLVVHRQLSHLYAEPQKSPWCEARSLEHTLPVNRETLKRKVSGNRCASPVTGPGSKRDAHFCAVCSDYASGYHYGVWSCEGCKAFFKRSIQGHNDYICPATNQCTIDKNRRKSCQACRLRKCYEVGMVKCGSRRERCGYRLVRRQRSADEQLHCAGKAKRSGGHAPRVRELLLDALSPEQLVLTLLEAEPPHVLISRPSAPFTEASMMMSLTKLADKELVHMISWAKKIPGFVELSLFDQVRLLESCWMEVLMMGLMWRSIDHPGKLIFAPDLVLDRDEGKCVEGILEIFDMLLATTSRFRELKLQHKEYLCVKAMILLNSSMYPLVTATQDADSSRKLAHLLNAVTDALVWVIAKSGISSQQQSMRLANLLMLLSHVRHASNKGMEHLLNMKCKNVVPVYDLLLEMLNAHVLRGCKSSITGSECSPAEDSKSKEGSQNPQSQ

[3] = tested on: BJ; test: BJ-TERT-LT-ST fibroblast viability loss – cell-based, RAS-independent, luminescence, dose response (AID 1935); format: functional; conditions: Homo sapiens;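 note: BJ fibroblasts immortalized with TERT plus LT and ST oncogenes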
[4] = target: Cyclin-dependent kinase 5/CDK5 activator 1 (Homo sapiens, UniProt Q00535); test: blockade of human CDK5 activity – biochemical, cherry-picked samples, set 2, dose response (AID 504545)
[5] = reduction of Shn3 3'UTR-driven luciferase in osteoblasts – cell-based, Clone20 osteoblasts, firefly luciferase, cherry-picked, dose response (AID 624132); format: functional;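 note: firefly luciferase luminescence from reporter carrying the Shn3 3'UTR in osteoblasts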
[6] = loss of viability in HepG2 cells – cell-based, CellTiter-Glo, cherry-picked, cytotoxicity control for Shn3 inhibitor project, dose response (AID 624134); format: functional
[7] = tested on: BJ; test: cells; format: functional, cell-based; conditions: Homo sapiens
[8] = DRD fibroblast viability loss – cell-based, non-viral oncogenic, luminescence, dose response (AID 1934); format: functional; conditions: Homo sapiens
[9] = non-specific 3'UTR reporter inhibition in Clone20-Shn3RL – cell-based, Renilla luciferase, cherry-picked, counter-screen for Shn3 inhibitor project, dose response (AID 624133); format: functional
[10] = target: T2, Zinc finger protein mex-5 (Caenorhabditis elegans, UniProt Q9XUB2); test: potency of MEX-5 RNA-binding blockers – biochemical, C. elegans, fluorescence polarization, dose response (AID 1960)
T2 sequence (Q9XUB2 whole entry): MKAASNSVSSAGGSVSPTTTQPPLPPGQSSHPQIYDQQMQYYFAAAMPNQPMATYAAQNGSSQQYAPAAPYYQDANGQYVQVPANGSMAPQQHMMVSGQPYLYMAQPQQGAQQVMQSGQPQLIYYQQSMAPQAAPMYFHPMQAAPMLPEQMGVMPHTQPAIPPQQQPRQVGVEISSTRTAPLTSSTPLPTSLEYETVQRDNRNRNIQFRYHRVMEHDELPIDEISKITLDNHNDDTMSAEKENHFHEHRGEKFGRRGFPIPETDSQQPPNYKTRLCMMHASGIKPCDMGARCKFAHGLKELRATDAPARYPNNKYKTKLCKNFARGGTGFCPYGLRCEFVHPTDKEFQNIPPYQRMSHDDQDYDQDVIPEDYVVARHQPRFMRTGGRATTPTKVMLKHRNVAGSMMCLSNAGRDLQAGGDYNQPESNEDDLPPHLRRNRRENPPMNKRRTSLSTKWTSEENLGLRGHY

[11] = target: T1, Estrogen receptor beta; test: blockers of SRC-3 recruitment to ERβ – biochemical, ELISA, streptavidin-HRP readout, orthogonal assay, confirmation (AID 1060)
[12] = target: Dual specificity tyrosine-phosphorylation-regulated kinase 1A (Rattus norvegicus, UniProt Q63470); format: biochemical, Homo sapiens
[13] = activation of miR-122 Renilla sensor silencing – cell-based, Huh7 psiCHECK-miR122, Renilla luciferase, cherry-picked, dose response (AID 651956); format: functional;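 note: huh7 hepatoma cells stably carrying a psiCHECK-2 miR-122 sensor plasmid; renilla luciferase signal reporting endogenous miR-122 activity after 48 h compound exposure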
[14] = target: FAD-linked sulfhydryl oxidase ALR (Homo sapiens, UniProt P55789); test: ALR-catalysed DTT oxidation blockers – biochemical, H2O2 detection, luminescence, cherry-pick, dose response (AID 493248)
FAD-linked sulfhydryl oxidase ALR, sequence (P55789 whole entry): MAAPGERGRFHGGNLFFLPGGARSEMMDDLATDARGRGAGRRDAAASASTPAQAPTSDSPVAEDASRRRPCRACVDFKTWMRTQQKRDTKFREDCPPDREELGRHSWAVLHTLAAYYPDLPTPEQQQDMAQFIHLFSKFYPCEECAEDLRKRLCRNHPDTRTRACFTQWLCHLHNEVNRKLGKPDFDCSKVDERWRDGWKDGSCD

[15] = target: Large T antigen (Simian virus 40, UniProt P03070); format: functional, Betapolyomavirus macacae;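 note: Confirmatory-stage PubChem screen for compounds that inhibit SV40 T antigen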
Large T antigen, sequence (P03070 whole entry): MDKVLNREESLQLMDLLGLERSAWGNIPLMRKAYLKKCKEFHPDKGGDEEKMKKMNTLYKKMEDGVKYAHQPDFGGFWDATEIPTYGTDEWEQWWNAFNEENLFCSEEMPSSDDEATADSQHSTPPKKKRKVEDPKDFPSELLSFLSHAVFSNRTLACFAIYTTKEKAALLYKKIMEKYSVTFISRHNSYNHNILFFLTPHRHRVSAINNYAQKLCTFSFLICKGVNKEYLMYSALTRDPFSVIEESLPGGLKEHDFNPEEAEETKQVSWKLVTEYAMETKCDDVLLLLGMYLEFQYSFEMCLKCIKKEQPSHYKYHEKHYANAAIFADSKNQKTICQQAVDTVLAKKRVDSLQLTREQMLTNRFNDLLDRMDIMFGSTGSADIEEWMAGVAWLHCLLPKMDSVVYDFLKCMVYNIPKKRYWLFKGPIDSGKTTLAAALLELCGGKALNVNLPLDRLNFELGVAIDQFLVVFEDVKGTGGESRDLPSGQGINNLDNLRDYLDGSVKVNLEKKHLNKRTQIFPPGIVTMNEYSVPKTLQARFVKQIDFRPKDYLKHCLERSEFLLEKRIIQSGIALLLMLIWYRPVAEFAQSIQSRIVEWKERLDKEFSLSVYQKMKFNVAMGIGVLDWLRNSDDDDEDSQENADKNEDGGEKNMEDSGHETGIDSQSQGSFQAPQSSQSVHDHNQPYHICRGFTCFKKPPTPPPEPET

[16] = general mammalian cell viability loss – inhibitor set, cherry-pick, set 2, cytotoxicity control for miR-122 modulator project, dose response (AID 720697); format: functional, cell-based
[17] = target: T3, RNA-binding protein pos-1 (Caenorhabditis elegans, UniProt G5EF15); test: disruptors of C. elegans POS-1 RNA interaction – biochemical, fluorescence polarization, dose response (AID 1964);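 note: purified POS-1 fused to maltose binding protein made in E. coli; potency of compounds blocking POS-1 binding to fluorescent RNA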
T3 sequence (G5EF15 whole entry): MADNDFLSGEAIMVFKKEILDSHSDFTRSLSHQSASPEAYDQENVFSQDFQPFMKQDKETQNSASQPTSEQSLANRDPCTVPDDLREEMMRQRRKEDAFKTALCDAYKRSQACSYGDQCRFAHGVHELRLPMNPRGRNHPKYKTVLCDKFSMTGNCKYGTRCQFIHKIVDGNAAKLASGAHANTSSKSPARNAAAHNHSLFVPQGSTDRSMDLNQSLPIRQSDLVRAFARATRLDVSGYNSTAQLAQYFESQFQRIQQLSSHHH

[18] = target: Mu-type opioid receptor (Homo sapiens, UniProt P35372); test: HTS Image-Based Screen for Agonists of the MOR Receptor. [Related pubchem assays (depositor defined):AID1777, AID1785, AID1786, AID2133]; format: functional;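 note: imaging of beta-arrestin GFP recruitment into spots after receptor activation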
Mu-type opioid receptor, sequence (P35372 whole entry): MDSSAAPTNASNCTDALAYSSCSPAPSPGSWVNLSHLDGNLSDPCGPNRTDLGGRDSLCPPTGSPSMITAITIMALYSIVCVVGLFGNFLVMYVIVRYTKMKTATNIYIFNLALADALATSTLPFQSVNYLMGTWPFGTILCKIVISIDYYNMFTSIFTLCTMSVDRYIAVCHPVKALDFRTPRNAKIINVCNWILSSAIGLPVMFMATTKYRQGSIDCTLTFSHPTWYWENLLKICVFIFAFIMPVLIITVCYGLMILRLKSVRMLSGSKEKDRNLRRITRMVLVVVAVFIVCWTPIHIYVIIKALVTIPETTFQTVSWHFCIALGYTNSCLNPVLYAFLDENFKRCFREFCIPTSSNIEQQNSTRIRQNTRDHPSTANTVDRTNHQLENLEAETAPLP

[19] = target: T4, Kappa-type opioid receptor (Homo sapiens, UniProt P41145); format: functional
T4 sequence (P41145 whole entry): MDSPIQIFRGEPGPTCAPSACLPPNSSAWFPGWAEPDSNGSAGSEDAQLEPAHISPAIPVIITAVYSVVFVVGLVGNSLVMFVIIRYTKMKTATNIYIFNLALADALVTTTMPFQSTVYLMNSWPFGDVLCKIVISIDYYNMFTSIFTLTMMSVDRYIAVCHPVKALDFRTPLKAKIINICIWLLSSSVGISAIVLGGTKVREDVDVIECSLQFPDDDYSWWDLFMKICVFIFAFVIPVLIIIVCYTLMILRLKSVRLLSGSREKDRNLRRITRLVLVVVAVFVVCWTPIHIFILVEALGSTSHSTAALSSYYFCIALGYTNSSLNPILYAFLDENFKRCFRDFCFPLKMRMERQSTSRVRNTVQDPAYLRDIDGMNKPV

[20] = target: T5, Delta-type opioid receptor (Homo sapiens, UniProt P41143); test: HTS Image-Based Screen for Antagonists of the DOR Receptor. [Related pubchem assays (depositor defined):AID1777, AID1785, AID1786, AID2133]; format: functional
T5 sequence (P41143 whole entry): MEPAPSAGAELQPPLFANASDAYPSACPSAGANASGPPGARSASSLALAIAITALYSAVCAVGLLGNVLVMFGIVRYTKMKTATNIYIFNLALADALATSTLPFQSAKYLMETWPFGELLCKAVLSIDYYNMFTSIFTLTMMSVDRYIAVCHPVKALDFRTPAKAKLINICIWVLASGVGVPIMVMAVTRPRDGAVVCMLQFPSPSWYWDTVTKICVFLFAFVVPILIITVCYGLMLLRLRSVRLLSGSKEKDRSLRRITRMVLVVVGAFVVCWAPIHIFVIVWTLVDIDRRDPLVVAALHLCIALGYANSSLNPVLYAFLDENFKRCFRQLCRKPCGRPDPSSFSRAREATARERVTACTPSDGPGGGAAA

[21] = target: T5, Delta-type opioid receptor; test: HTS Image-Based Screen for Agonists of the DOR Receptor. [Related pubchem assays (depositor defined):AID1777, AID1786, AID2133]; format: functional
[22] = target: T4, Kappa-type opioid receptor; format: functional; remark: listed apart in the source
[23] = target: Scavenger receptor class B member 1 (Mus musculus, UniProt Q61009); test: mouse SR-BI DiI-HDL uptake blockers – ldlA[mSR-BI] cells, fluorescence, cherry pick, dose response (AID 493194); format: functional, cell-based;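 note: cellular uptake of fluorescent DiI-labeled HDL measured as cell fluorescence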
Scavenger receptor class B member 1, sequence (Q61009 whole entry): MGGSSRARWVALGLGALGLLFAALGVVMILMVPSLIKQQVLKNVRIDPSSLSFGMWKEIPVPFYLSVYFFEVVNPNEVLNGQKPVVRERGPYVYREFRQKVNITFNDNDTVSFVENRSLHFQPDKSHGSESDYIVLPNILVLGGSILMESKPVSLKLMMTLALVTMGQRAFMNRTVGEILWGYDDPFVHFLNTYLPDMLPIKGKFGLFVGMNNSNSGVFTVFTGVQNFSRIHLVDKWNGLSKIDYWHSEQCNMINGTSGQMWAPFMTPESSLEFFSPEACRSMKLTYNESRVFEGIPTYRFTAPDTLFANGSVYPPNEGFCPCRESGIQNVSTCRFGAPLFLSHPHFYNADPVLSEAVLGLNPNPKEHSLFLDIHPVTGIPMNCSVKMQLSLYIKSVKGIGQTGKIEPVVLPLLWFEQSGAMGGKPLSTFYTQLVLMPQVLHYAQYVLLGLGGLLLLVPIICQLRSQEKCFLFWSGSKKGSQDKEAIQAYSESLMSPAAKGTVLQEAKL

[24] = target: Neurotensin receptor type 1 (Homo sapiens, UniProt P30989); format: functional;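 note: Image-based confirmatory dose-response assay measuring agonist activity at NTR1; NTR1-expressing U2OS osteosarcoma cells imaged for beta-arrestin GFP spot formation; agonist potency where compounds increase beta-arrestin recruitment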
Neurotensin receptor type 1, sequence (P30989 whole entry): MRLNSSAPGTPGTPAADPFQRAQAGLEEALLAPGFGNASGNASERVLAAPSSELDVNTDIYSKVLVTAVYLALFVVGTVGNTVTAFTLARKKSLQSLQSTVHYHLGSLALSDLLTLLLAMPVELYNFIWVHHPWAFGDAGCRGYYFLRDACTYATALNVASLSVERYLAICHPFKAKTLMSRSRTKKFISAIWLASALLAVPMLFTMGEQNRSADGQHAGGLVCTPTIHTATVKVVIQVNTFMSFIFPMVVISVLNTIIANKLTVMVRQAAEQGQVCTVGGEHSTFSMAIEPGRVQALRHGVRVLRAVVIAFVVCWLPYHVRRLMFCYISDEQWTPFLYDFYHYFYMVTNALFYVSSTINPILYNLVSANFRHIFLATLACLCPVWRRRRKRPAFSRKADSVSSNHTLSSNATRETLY

[25] = tested on: INS1; test: INS-1E survival protection against cytokine death – cell-based, luminescence, retest, dose response (AID 449756); format: functional; conditions: Rattus norvegicus;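 note: cell death triggered by IL-1 beta plus TNF-alpha plus IFN-gamma mixture; protective hits raise ATP signal compared with cytokine alone wells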
[26] = target: Wee1-like protein kinase (Homo sapiens, UniProt P30291); test: HeLa cell cycle G2/M accumulation – FACS, mechanism study for Wee1 degradation inhibitor project, late-stage follow-up, panel member Wee1 Degradation (AID 2088)
Wee1-like protein kinase, sequence (P30291 whole entry): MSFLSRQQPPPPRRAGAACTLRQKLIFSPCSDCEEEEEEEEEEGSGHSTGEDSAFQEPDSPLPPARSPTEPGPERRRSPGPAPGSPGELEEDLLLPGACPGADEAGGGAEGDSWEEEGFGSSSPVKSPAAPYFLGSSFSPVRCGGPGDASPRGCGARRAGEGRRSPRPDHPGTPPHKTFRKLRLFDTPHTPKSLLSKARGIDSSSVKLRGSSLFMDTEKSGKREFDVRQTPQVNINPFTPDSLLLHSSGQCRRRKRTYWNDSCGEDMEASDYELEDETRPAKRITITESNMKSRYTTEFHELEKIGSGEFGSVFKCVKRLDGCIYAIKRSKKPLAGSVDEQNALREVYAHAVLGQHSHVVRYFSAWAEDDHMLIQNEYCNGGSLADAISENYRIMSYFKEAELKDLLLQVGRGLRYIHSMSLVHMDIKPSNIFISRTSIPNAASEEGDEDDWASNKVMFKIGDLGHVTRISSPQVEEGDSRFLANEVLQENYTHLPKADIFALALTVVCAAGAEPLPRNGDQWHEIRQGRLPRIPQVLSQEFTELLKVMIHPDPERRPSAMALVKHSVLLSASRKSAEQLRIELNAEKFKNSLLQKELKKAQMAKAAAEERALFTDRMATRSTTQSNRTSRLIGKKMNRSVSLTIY

[27] = target: G2/mitotic-specific cyclin-B1 (Homo sapiens, UniProt P14635); test: HeLa cell cycle G2/M accumulation – FACS, mechanism study for Wee1 degradation inhibitor project, late-stage follow-up, panel member Cyclin B Degradation (AID 2088)
G2/mitotic-specific cyclin-B1, sequence (P14635 whole entry): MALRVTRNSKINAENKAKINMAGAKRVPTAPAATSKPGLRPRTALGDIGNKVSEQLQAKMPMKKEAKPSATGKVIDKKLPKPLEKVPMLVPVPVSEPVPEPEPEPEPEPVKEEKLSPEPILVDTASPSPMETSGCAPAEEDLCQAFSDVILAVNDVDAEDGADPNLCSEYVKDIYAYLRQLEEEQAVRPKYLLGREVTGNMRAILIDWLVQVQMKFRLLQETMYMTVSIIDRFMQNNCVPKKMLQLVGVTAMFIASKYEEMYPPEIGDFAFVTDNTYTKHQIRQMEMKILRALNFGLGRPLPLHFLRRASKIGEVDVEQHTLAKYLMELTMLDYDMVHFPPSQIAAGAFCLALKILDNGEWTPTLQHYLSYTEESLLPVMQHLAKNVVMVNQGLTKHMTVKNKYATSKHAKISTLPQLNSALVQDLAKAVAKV

EC50 [18]: > 32 µM (inactive)
EC50 [19]: 14 µM
IC50 [20]: > 32 µM (inactive)
EC50 [21]: > 32 µM (inactive)
EC50 [22]: 13.1 µM
SMILES: Cc1ccc(Cl)cc1NC(=S)N(Cc1cccs1)C1CCCC1

AC50 [23]: 1.04 µM (active)
SMILES: Cc1ccccc1NC(=O)NCC1CCN(c2ccc(S(=O)(=O)N3CCOCC3)cc2)CC1

EC50 [26]: > 49.7 µM (inactive)
EC50 [27]: > 49.7 µM (inactive)
SMILES: Cc1cc(O)nc(-n2nc(C)cc2NC(=O)c2cccc(Br)c2)n1

Further lines, the molecule ahead of its results:

SMILES: Oc1ccc(-c2nc(-c3ccc(O)c(O)c3)cs2)cc1
EC50 [1]: 2.89 µM (inconclusive)
IC50 [2]: 4.96 µM (active)
EC50 [3]: > 150 µM (not active)
AC50 [4]: 23.5 µM (active)
AC50 [5]: 5.07 µM (active)
AC50 [6]: > 70 µM (inactive)
EC50 [7]: 41.4 µM (active)
EC50 [8]: 2.67 µM (inconclusive)
AC50 [9]: 5.09 µM (active)
EC50 [10]: 20.8 µM (inconclusive)
IC50 [11]: 90.7 µM (not active)
AC50 [12]: 3.19 µM (active)
AC50 [13]: 29 µM (active)
AC50 [14]: 1.22 µM (active)
IC50 [15]: 36.1 µM (active)
AC50 [16]: 1.31 µM (active)
EC50 [17]: 33.5 µM (active)

SMILES: c1ccc(C(c2ccccc2)N2CCN(c3nc4ccccc4n4cnnc34)CC2)cc1
EC50 [24]: 26.4 µM (inactive)
AC50 [25]: 4.56 µM (active)

— ChEMBL document CHEMBL1201862, “PubChem BioAssay data set” (2004)
